{"source": "patent US5741516A", "about": "“Sphingosomes for enhanced drug delivery” (priority 1995, dated 1998)", "key": {"[1]": {"conditions": "for animals that died after chemotherapy (in words): LD50 dose, within a few days; for Survival (%): 14 days", "source_text": "Female C57BL/6 mice (average weight 15.03 g), were used and housed under standard conditions. The animals received free access to both food and water throughout the experiment after a one week acclimatization period prior to experimental manipulation. The mice were 6 weeks old on the beginning of the experiment and placed randomly in 12 groups of 5 mice per group."}, "[2]": {"assay": "In vitro oral stability in gastric contents", "type": "physicochemical", "conditions": "simulated gastric contents; hydrochloric acid (pH2) with pepsin; up to 72 hours", "experimental": "To establish an advantage for the oral route of administration, swainsonine was incubated in vitro in simulated gastric contents for various periods of time (1, 2, 4, 24, 48 and 72 hrs.) and the \"oral stability\" of swainsonine was determined. Swainsonine was also incubated in hydrochloric acid (pH2) containing the main gastric digestive enzyme, pepsin."}, "bone marrow [3]": {"test_system": "bone marrow", "assay": "Bone marrow cellularity after chemotherapy", "type": "in vivo, C57BL/6 mice", "conditions": "14 days after chemotherapy; orally or i.p., vs GM-CSF i.p. 10 days", "experimental": "On the 15th day after the initial chemotherapeutic dose, 4 mice from each group of the immunomodulation study (Example 6) were randomly sacrificed and up to 1 ml of blood was obtained by cardiac puncture. Circulating peripheral WBCs were counted, blood smears (for neutrophil counts) were made and plasma samples were collected and tested for cytokine production (IL-1, IL-2, TNF). Blood cytokine levels (TNF, IL-1, and IL-2) were assayed by commercially available assay kits. The spleen, thymus and bone marrow were removed and single cell suspensions were prepared. The cellularity of these lymphoid organs was assessed by trypan blue exclusion test."}, "tumor cells": {"test_system": "tumor cells", "conditions": "in vitro; cited from earlier work"}, "bone marrow [4]": {"test_system": "bone marrow", "conditions": "cited from earlier work"}, "[5]": {"test_system": "colon cancer and melanoma cancers", "conditions": "combined with interferon, in vivo; cited from earlier work"}, "[6]": {"test_system": "IL-1, IL-2, TNF, GM-CSF and interferons", "conditions": "cited from earlier work"}, "[7]": {"assay": "Bioavailability of liposomal swainsonine", "type": "in vivo, Balb/c mice", "conditions": "p.o. vs i.v.", "experimental": "Female Balb/c mice, 5-6 weeks of age, were housed under standard conditions. […] Swainsonine (Toronto Res. Chem.) was radiolabeled with tritium. Tritiated swainsonine was administered as a lipid-based formulation (L-Im) and as an aqueous formulation containing the free drug (F-Im). Tritiated swainsonine was loaded into sphingomyelin/cholesterol (Avanti Polar Labs) sphingosomes using a citrate buffer pH 2 gradient at a drug-to-lipid ratio of 0.2:1 (mol:mol) and with an efficiency of loading of 80%. Two hundred microliters of the lipid and aqueous swainsonine formulations were given orally by gavage (p.o.), intraperitoneally (i.p.), or intravenously (i.v.). Fifty microliter blood samples were collected by retroorbital bleeds at 1, 3, 6, and 24 hours after administration. The blood samples were bleached and then counted in a scintillation counter. Results were expressed as the percentage of the administered dose in the blood at various time-points after administration."}, "TNF-α": {"test_system": "TNF-α", "assay": "TNF production by mitogen-stimulated splenocytes", "type": "in vivo, C57BL/6 mice", "conditions": "vs chemotherapy-treated and PBS controls, FIG. 10A", "experimental": "(§1) Cells from spleen, thymus and bone marrow were tested for their ability to respond to stimulation from different mitogens: ConA (1, 2.5 and 5 μg/ml) (Sigma), phytohemagglutinin (PHA) (1, and 2.5 μg/ml) (Sigma) and LPS (2.5 and 5 μg/ml) (Difco). After 72 hours of stimulation the proliferative response was measured using CellTiter 96 (Promega). Simultaneously, mitogen stimulated splenocytes were set up for cytokine production after ConA (2.5 μg/ml) and lipopolysaccharide (LPS) (2.5 μg/ml) stimulation. The supernatants were collected after 24 hr. and 48 hr. and tested for Tumor Necrosis Factor-α (TNF-α) and Interleukin-2 (IL-2) production using the direct ELISA method. Supernatants from unstimulated cells served as controls. Results are expressed as pg/ml of TNF-α (sensitivity of the assay is <25 pg/ml) or IL-2 (sensitivity of the assay is <3 pg/ml)."}, "IL-2": {"test_system": "IL-2", "assay": "IL-2 production by mitogen-stimulated splenocytes", "type": "in vivo, C57BL/6 mice", "conditions": "vs chemotherapy-treated and PBS controls, FIG. 10B", "experimental": "as §1"}, "[8]": {"assay": "Vincristine uptake into liposomes by pH gradient", "type": "physicochemical", "conditions": "drug/lipid 0.1/1 (wt/wt), 10 minutes at 60° C", "experimental": "Uptake of vincristine into large unilamellar liposomes was achieved using a pH gradient-dependent procedure described by Mayer et al., Cancer Chemother. Pharmacol. 33:17-24 (1993), incorporated herein by reference. Briefly, a solution of vincristine sulfate (Oncovin®, Eli Lilly, Indianapolis, Ind.) was added to liposomes at a drug/lipid ratio of 0.1/1 (wt/wt) and equilibrated at 60° C. for 5 to 10 minutes. Vincristine uptake in response to a transmembrane pH gradient was initiated by the addition of 0.5M Na2 HPO4 to bring the external pH to 7.2-7.6."}, "A431 tumors": {"test_system": "A431 tumors", "assay": "Antitumor efficacy against A431 tumors", "type": "in vivo, human A431 xenograft, SCID mice", "conditions": "vincristine 2.0 mg/kg i.v.", "experimental": "Tumor loading and antitumor efficacy properties of DSPC/Chol and SM/Chol liposomal formulations of vincristine were determined in mice bearing solid human A431 squamous cell xenograft tumors. These experiments were undertaken to ensure that the positive results observed in the murine ascitic P388 tumor model were representative of other tumor types. SCID mice bearing 100-200 mg solid human A431 tumors were injected i.v. with free vincristine or with liposomes of either DSPC/Chol or SM/Chol containing vincristine. Vincristine encapsulated DSPC/Chol and SM/Chol liposomes were prepared as in Example II. […] As observed in BDF1 mice bearing P388 tumors, the amount of vincristine remaining in the circulation in SM/Chol liposomes at 24 hours after injection was approximately 3-fold greater than for vincristine encapsulated in DSPC/Chol liposomes (FIG. 11A).\nThe antitumor efficacy of free and liposomal vincristine against A431 was closely correlated with vincristine accumulation at the tumor site (FIG. 12). […] This therapy was further enhanced by a single treatment of vincristine encapsulated in SM/Chol liposomes. […] Of the five mice (total of 10 tumors) treated with SM/Chol liposomal vincristine, 1 animal was terminated early due to tumor ulceration, not due to tumor growth."}, "[9]": {"conditions": "in vivo; cited from earlier work"}}, "note": "Read-outs that look alike come from different tables or passages of the source.", "data": [{"molecule": "COc1cccc2c1C(=O)c1c(O)c3c(c(O)c1C2=O)C[C@@](O)(C(=O)CO)C[C@@H]3O[C@H]1C[C@H](N)[C@H](O)[C@H](C)O1", "note": "[DOX, Doxorubicin]", "values": [{"measurement": "animals that died after chemotherapy (in words)", "setting": "[1]", "result": "half"}, {"measurement": "Survival (%)", "setting": "[1]; i.p.", "result": 60, "unit": "%"}]}, {"molecule": "CN(Cc1cnc2nc(N)nc(N)c2n1)c1ccc(C(=O)N[C@@H](CCC(=O)O)C(=O)O)cc1", "note": "[MTX, methotrexate]", "values": [{"measurement": "animals that died after chemotherapy (in words)", "setting": "[1]", "result": "Half"}, {"measurement": "Survival (%)", "setting": "[1]; i.p.", "result": 40, "unit": "%"}]}, {"molecule": "O[C@H]1[C@H]2[C@H](O)CCCN2C[C@H]1O", "note": "[swainsonine]", "values": [{"measurement": "in vitro oral stability", "setting": "[2]", "result": "stable under these harsh conditions for up to 72 hours"}, {"measurement": "bone marrow cellularity", "setting": "bone marrow [3]", "result": "performed as effectively as GM-CSF"}, {"measurement": "B- and T-cell immunity, natural killer T-cell and macrophage-induced destruction of tumor cells", "setting": "tumor cells", "result": "induces B- and T-cell immunity, natural killer T-cell and macrophage-induced destruction of tumor cells in vitro"}, {"measurement": "Survival (%)", "setting": "[1]; i.p.", "result": 100, "unit": "%"}, {"measurement": "Survival (%)", "setting": "[1]; p.o.", "result": 100, "unit": "%"}, {"measurement": "survival beyond 2 weeks after chemotherapy (in words)", "setting": "[1]; swainsonine intravenously or i.p. / GM-CSF i.p., 10 days, after Mtx or Dox", "result": "all animals"}, {"measurement": "survival after cytotoxic treatment (in words)", "setting": "[1]; swainsonine p.o. 10 days after Mtx or Dox", "result": "all but one animal"}, {"measurement": "bone marrow proliferation", "setting": "bone marrow [4]", "result": "has the capacity to stimulate bone marrow proliferation"}, {"measurement": "direct anti-tumor activity", "setting": "[5]", "result": "direct anti-tumor activity against colon cancer and melanoma cancers"}, {"measurement": "production of multiple cytokines", "setting": "[6]", "result": "stimulates the production of multiple cytokines"}, {"measurement": "oral bioavailability compared to swainsonine administered intravenously", "setting": "[7]", "result": "60-65%"}, {"measurement": "TNF level in stimulated splenocytes", "setting": "TNF-α", "result": "significantly elevated"}, {"measurement": "IL-2 level in stimulated splenocytes", "setting": "IL-2", "result": "significantly elevated"}]}, {"molecule": "CC[C@]1(O)C[C@H]2CN(CCc3c([nH]c4ccccc34)[C@@](C(=O)OC)(c3cc4c(cc3OC)N(C=O)[C@H]3[C@@](O)(C(=O)OC)[C@H](OC(C)=O)[C@]5(CC)C=CCN6CC[C@]43[C@@H]65)C2)C1", "note": "[vincristine]", "values": [{"measurement": "trapping efficiency", "setting": "[8]", "result": "approximately 95%"}, {"measurement": "delay in tumor growth / change in tumor size", "setting": "A431 tumors", "result": "brief delay in tumor growth"}, {"measurement": "time to 100% increase in tumor weight", "setting": "A431 tumors", "result": "6 to 8", "unit": "days"}, {"measurement": "time to required termination", "setting": "A431 tumors", "result": "10 to 12", "unit": "days"}]}, {"molecule": "sphingomyelin", "values": [{"measurement": "circulation lifetime of liposomes", "setting": "[9]", "result": "increase in the circulation lifetime of liposomes"}]}]}
